Laboratory results from ChEMBL document CHEMBL1130446, “The synthesis of CD - ring modified 1,25-dihydroxy vitamin D analogues: Six-membered D-ring analogues II” (Bioorg Med Chem Lett, 1997).

How the values were obtained:
MCF7 = experiment: Compound was tested in vitro for its biological evaluation against MCF-7 cell line; type: functional, Homo sapiens
HL-60 = experiment: Compound was tested in vitro for its biological evaluation against HL-60 cell line; type: functional, Homo sapiens
Mus musculus = experiment: In vivo effect in vitamin D-replete normal NMRI mice by measuring calcium levels in serum; type: functional
Keratinocyte = experiment: Compound was tested in vitro for its biological evaluation against keratinocytes cell line; type: functional
[1] = molecular target: T1, Vitamin D3 receptor (Sus scrofa domesticus) (UniProt Q7M3G7); experiment: Compound was tested for its relative affinity to pig intestinal mucosa Vitamin D3 receptor using [3H]- 1 alpha,25(OH)2 D3 radioligand compared to 1 alpha 25-(OH)2D3; type: tissue-based
T1 sequence (whole entry): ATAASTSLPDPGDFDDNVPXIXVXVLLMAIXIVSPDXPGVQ

[2] = Ratio of biological evaluation of compound in keratinocytes and calcium serum was determined. value expressed as relative toxicity.; type: cell-based
[3] = Ratio of biological evaluation of compound in keratinocytes and calcium sreum was determined. value expressed as relative toxicity.; type: cell-based
MG-63 = experiment: Compound was tested in vitro for its biological evaluation against MG-63 cell line; type: functional, Homo sapiens

Row | Structure (SMILES) | Activity (MCF7) | Activity (HL-60) | Activity (Mus musculus) | Activity (Keratinocyte) | Relative affinity [1] | Ratio [2] | Ratio [3] | Activity (MG-63)
1 | C=C1C(=CC=CC2CCCC([C@H](C)CC#CC(C)(C)O)C2(C)C)C[C@@H](O)C[C@@H]1O (stereo not given in full) | 100 | 85 | <0.1 | 200 | 60 | 2000 | – | –
2 | C=C1C(=CC=CC2CCCC([C@@H](C)CC#CC(C)(C)O)C2(C)C)C[C@@H](O)C[C@@H]1O (stereo not given in full) | 4 | 10 | 0.25 | 7 | 0.7 | – | 28 | 20
3 | C=C1/C(=C\C=C2/CCC[C@]3(C)C([C@H](C)CC#CC(C)(C)O)=CC[C@@H]23)C[C@@H](O)C[C@@H]1O [ILX23-7553] | 4250 | 1000 | 10 | 8000 | 70 | – | 1300 | 1000
